Data: patent US10647680B2, “Urea compound, preparation method therefor and medical use thereof” (Ancureall Pharmaceutical (Shanghai) Co., Ltd., priority 2016, dated 2020)

How the values were obtained:
[1] = test system: RS4; 11 (FLT3 wild type); test: In vitro growth inhibition (GI50), RS4; 11; type: cell-based, human; conditions: Homo sapiens, RS4-11; Cell lines of leukemia; read-out: GI 50 RS4: 11 FLT3 (WT)
[2] = test system: KG-1 (expressing FGFR1OP2-FGFR1 fusion protein); test: In vitro growth inhibition (GI50), KG-1; type: cell-based; conditions: Homo sapiens; Cell lines of leukemia; read-out: GI 50 KG-1 FGFR1OP 2-FGFR1
[3] = test system: MOLM-13 (FLT3 ITD+/− mutant type); test: In vitro growth inhibition (GI50), MOLM-13; type: cell-based, human; conditions: Homo sapiens, MOLM-13; Cell lines of leukemia; read-out: GI 50 MOLM-13 FLT3 (ITD+/−)
[4] = test system: HL-60 (FLT3 wild type); test: In vitro growth inhibition (GI50), HL-60; type: cell-based; conditions: Homo sapiens, Cell lines of leukemia, read-out: GI 50 HL60 FLT3 (WT)
Method in brief: (§1)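 After 3–5 days of treatment (top concentration 5,000 nM, serially diluted 2- or 10-fold to 0.01 nM, solvent ≤1%), viability was read by CCK8 at OD450. Growth rate was normalised to the time-zero and solvent-control wells, and GI50 was derived from the curve. Cultures in RPMI1640 + 10% FBS.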

[5] = test system: U937 (FLT3 wild-type); test: In vitro growth inhibition (GI50), U937; type: cell-based; conditions: Homo sapiens, U-937; Cell lines of leukemia; read-out: GI 50 U937 FLT 3(WT)
[6] = test system: K562 (FLT3 negative expression, positive expression of BCR-ABL fusion protein); test: In vitro growth inhibition (GI50), K562; type: cell-based; conditions: Homo sapiens, Cell lines of leukemia, read-out: GI 50 K562 BCR-ABL
[7] = test system: OCI-AML3 (NPMc+ mutant type); test: In vitro growth inhibition (GI50), OCI-AML3; type: cell-based; conditions: Homo sapiens, OCI-AML-3; Cell lines of leukemia; read-out: GI 50 OCI- AML3 NPMc+
[8] = test system: Kasumi-1 (c-Kit N822K mutant type); test: In vitro growth inhibition (GI50), Kasumi-1; type: cell-based; conditions: Homo sapiens, Cell lines of leukemia, read-out: GI 50 Kasumi-1 Kit (N822K)
Method in brief: as §1

[9] = test system: MV4-11 (FLT3 ITD+/+ mutant type); test: In vitro growth inhibition (GI50), MV4-11; type: cell-based, human; conditions: Homo sapiens, MV4-11; Cell lines of leukemia; read-out: GI 50 MV4-11 FLT3 (ITD +/+)
[10] = test system: RAMOS (positive expression of Brutons tyrosine protein kinase); test: In vitro growth inhibition (GI50), RAMOS; type: cell-based; conditions: Homo sapiens, Cell lines of leukemia, read-out: GI 50 Ramos BTK

## Cc1ccnc2c1ncn2-c1ccc(NC(=O)Nc2cc(C(C)(C)C)on2)cc1 [Compound 55, 1-(5-tert-butyl-isoxazol-3-yl)-3-[4-(7-methylimidazo[4,5-b]pyridin-3-yl)-phenyl]-urea]
[1]
  GI50: > 1 µM
[2]
  GI50: > 1 µM
[3]
  GI50: 0.01 to 0.1 µM
[4]
  GI50: > 1 µM
[5]
  GI50: > 1 µM
[6]
  GI50: > 1 µM
[7]
  GI50: 0.1 to 1 µM
[8]
  GI50: > 1 µM
[9]
  GI50: 0.01 to 0.1 µM
[10]
  GI50: > 1 µM

## Cc1ccc2c(c1)ncn2-c1ccc(NC(=O)Nc2cc(C(C)(C)C)on2)cc1 [Compound 24, 1-(5-tert-butyl-isoxazol-3-yl)-3-[4-(5-methyl-benzimidazol-1-yl)-phenyl]-urea]
[1]
  GI50: 0.1 to 1 µM
[2]
  GI50: > 1 µM
[3]
  GI50: 0.001 to 0.01 µM
[4]
  GI50: > 1 µM
[5]
  GI50: > 1 µM
[6]
  GI50: 0.1 to 1 µM
[7]
  GI50: > 1 µM
[8]
  GI50: > 1 µM
[9]
  GI50: 0.001 to 0.01 µM
[10]
  GI50: > 1 µM

## Cn1nc(C(C)(C)C)cc1NC(=O)Nc1ccc(-n2cnc3ccccc32)cc1 [Compound 100, 1-(4-benzimidazol-1-yl-phenyl)-3-(5-tert-butyl-2-methyl-2H-pyrazol-3-yl)-urea]
[1]
  GI50: > 1 µM
[2]
  GI50: > 1 µM
[3]
  GI50: 0.0001 to 0.001 µM
[4]
  GI50: > 1 µM
[5]
  GI50: > 1 µM
[6]
  GI50: > 1 µM
[7]
  GI50: > 1 µM
[8]
  GI50: > 1 µM
[9]
  GI50: 0.0001 to 0.001 µM
[10]
  GI50: > 1 µM

## CCCCCCOc1ccc2c(c1)ncn2-c1ccc(NC(=O)Nc2cc(C(C)(C)C)n[nH]2)cc1 [Compound 73, 1-(5-tert-butyl-2H-pyrazol-3-yl)-3-[4-(5-hexyloxyl-benzimidazol-1-yl)-phenyl]-urea]
[1]
  GI50: > 1 µM
[2]
  GI50: > 1 µM
[3]
  GI50: 0.0001 to 0.001 µM
[4]
  GI50: > 1 µM
[5]
  GI50: > 1 µM
[6]
  GI50: > 1 µM
[7]
  GI50: > 1 µM
[8]
  GI50: > 1 µM
[9]
  GI50: 0.0001 to 0.001 µM
[10]
  GI50: > 1 µM

## COc1ncnc2c1ncn2-c1ccc(NC(=O)Nc2cc(C(C)(C)C)on2)cc1 [Compound 58, 1-(5-tert-butyl-isoxazol-3-yl)-3-[4-(6-methoxylpurin-9-yl)-phenyl]-urea]
[1]
  GI50: > 1 µM
[2]
  GI50: > 1 µM
[3]
  GI50: 0.01 to 0.1 µM
[4]
  GI50: > 1 µM
[5]
  GI50: > 1 µM
[6]
  GI50: > 1 µM
[7]
  GI50: > 1 µM
[8]
  GI50: > 1 µM
[9]
  GI50: 0.01 to 0.1 µM
[10]
  GI50: > 1 µM

## Nc1cc(C2CC2)nn1C(=O)Nc1ccc(-n2cnc3ccccc32)cc1 [Compound 114, 5-amino-3-cyclopropylpyrazol-1-formic acid (4-benzimidazol-1-yl-phenyl)-amide]
[1]
  GI50: > 1 µM
[2]
  GI50: > 1 µM
[3]
  GI50: 0.1 to 1 µM
[4]
  GI50: > 1 µM
[5]
  GI50: > 1 µM
[6]
  GI50: > 1 µM
[7]
  GI50: > 1 µM
[8]
  GI50: > 1 µM
[9]
  GI50: 0.1 to 1 µM
[10]
  GI50: > 1 µM

## CCOCCOc1ccc2c(c1)ncn2-c1ccc(NC(=O)Nc2cc(C(C)(C)C)on2)cc1 [Compound 13, 1-(5-tert-butyl-isoxazol-3-yl)-3-{4-[5-(2-ethoxyl-ethoxyl)-benzimidazol-1-yl]-phenyl]-urea]
[1]
  GI50: > 1 µM
[2]
  GI50: > 1 µM
[3]
  GI50: 0.0001 to 0.001 µM
[4]
  GI50: > 1 µM
[5]
  GI50: > 1 µM
[6]
  GI50: > 1 µM
[7]
  GI50: > 1 µM
[8]
  GI50: > 1 µM
[9]
  GI50: 0.0001 to 0.001 µM
[10]
  GI50: > 1 µM

## COc1cc2ncn(-c3ccc(NC(=O)Nc4cc(C(C)(C)C)on4)cc3)c2cc1OC [Compound 31, 1-(5-tert-butyl-isoxazol-3-yl)-3-[4-(5,6-dimethoxyl-benzimidazol-1-yl)-phenyl]-urea]
[1]
  GI50: 0.1 to 1 µM
[2]
  GI50: > 1 µM
[3]
  GI50: 0.0001 to 0.001 µM
[4]
  GI50: > 1 µM
[5]
  GI50: > 1 µM
[6]
  GI50: 0.1 to 1 µM
[7]
  GI50: > 1 µM
[8]
  GI50: 0.1 to 1 µM
[9]
  GI50: 0.0001 to 0.001 µM
[10]
  GI50: 0.1 to 1 µM

## CC(C)COc1ccc2c(c1)ncn2-c1ccc(NC(=O)Nc2cc(C(C)(C)C)n[nH]2)cc1 [Compound 76, 1-(5-tert-butyl-2H-pyrazol-3-yl)-3-[4-(5-isobutoxy-benzimidazol-1-yl)-phenyl]-urea]
[1]
  GI50: > 1 µM
[2]
  GI50: > 1 µM
[3]
  GI50: 0.001 to 0.01 µM
[4]
  GI50: > 1 µM
[5]
  GI50: > 1 µM
[6]
  GI50: > 1 µM
[7]
  GI50: > 1 µM
[8]
  GI50: > 1 µM
[9]
  GI50: 0.001 to 0.01 µM
[10]
  GI50: > 1 µM

## Cc1cc(NC(=O)Nc2ccc(-n3cnc4ccccc43)cc2)no1 [Compound 2, 1-(4-benzimidazol-1-yl-phenyl)-3-(5-methyl-isoxazol-3-yl)-urea]
[1]
  GI50: > 1 µM
[2]
  GI50: > 1 µM
[3]
  GI50: > 1 µM
[4]
  GI50: > 1 µM
[5]
  GI50: > 1 µM
[6]
  GI50: > 1 µM
[7]
  GI50: > 1 µM
[8]
  GI50: > 1 µM
[9]
  GI50: > 1 µM
[10]
  GI50: > 1 µM

## CN(C)CCN(C)c1ccc2ncn(-c3ccc(NC(=O)Nc4cc(C(C)(C)C)on4)cc3)c2c1 [Compound 28, 1-(5-tert-butyl-isoxazol-3-yl)-3-(4-{6-[(2-dimethylamino-ethyl)-methyl-amino]-benzimidazol-1-yl}-phenyl)-urea]
[1]
  GI50: > 1 µM
[2]
  GI50: > 1 µM
[3]
  GI50: 0.001 to 0.01 µM
[4]
  GI50: > 1 µM
[5]
  GI50: > 1 µM
[6]
  GI50: > 1 µM
[7]
  GI50: > 1 µM
[8]
  GI50: > 1 µM
[9]
  GI50: 0.001 to 0.01 µM
[10]
  GI50: > 1 µM

## CC1(COc2ccc3c(c2)ncn3-c2ccc(NC(=O)Nc3cc(C(C)(C)C)n[nH]3)cc2)COC1 [Compound 85, 1-(5-tert-butyl-2H-pyrazol-3-yl)-3-{4-[5-(3-methyl-oxetane-3-ylmethoxy)-benzimidazol-1-yl]-phenyl]urea]
[1]
  GI50: > 1 µM
[2]
  GI50: > 1 µM
[3]
  GI50: 0.0001 to 0.001 µM
[4]
  GI50: > 1 µM
[5]
  GI50: > 1 µM
[6]
  GI50: > 1 µM
[7]
  GI50: > 1 µM
[8]
  GI50: > 1 µM
[9]
  GI50: 0.0001 to 0.001 µM
[10]
  GI50: > 1 µM

## CC(C)(C)c1cc(NC(=O)Nc2ccc(-n3cnc4cc(C(F)(F)F)ccc43)cc2)no1 [Compound 23, 1-(5-tert-butyl-isoxazol-3-yl)-3-[4-(5-trifluoromethyl-benzimidazol-1-yl)-phenyl]-urea]
[1]
  GI50: 0.1 to 1 µM
[2]
  GI50: > 1 µM
[3]
  GI50: 0.001 to 0.01 µM
[4]
  GI50: > 1 µM
[5]
  GI50: > 1 µM
[6]
  GI50: 0.1 to 1 µM
[7]
  GI50: > 1 µM
[8]
  GI50: > 1 µM
[9]
  GI50: 0.001 to 0.01 µM
[10]
  GI50: > 1 µM

## CC(C)(C)c1cc(NC(=O)Nc2ccc(-n3cnc4cccc(OCCN5CCOCC5)c43)cc2)no1 [Compound 30, 1-(5-tert-butyl-isoxazol-3-yl)-3-{4-[7-(2-morpholin-4-yl-ethoxyl)-benzimidazol-1-yl]-phenyl}-urea]
[1]
  GI50: > 1 µM
[2]
  GI50: > 1 µM
[3]
  GI50: > 1 µM
[4]
  GI50: 0.1 to 1 µM
[5]
  GI50: > 1 µM
[6]
  GI50: > 1 µM
[7]
  GI50: > 1 µM
[8]
  GI50: > 1 µM
[9]
  GI50: > 1 µM
[10]
  GI50: > 1 µM

## Cc1ccc2ncn(-c3ccc(NC(=O)Nc4cc(C(C)(C)C)on4)cc3)c2n1 [Compound 54, 1-(5-tert-butyl-isoxazol-3-yl)-3-[4-(5-methylimidazo[4,5-b]pyridine-3-yl)-phenyl]-urea]
[1]
  GI50: > 1 µM
[2]
  GI50: > 1 µM
[3]
  GI50: 0.001 to 0.01 µM
[4]
  GI50: > 1 µM
[5]
  GI50: > 1 µM
[6]
  GI50: > 1 µM
[7]
  GI50: > 1 µM
[8]
  GI50: > 1 µM
[9]
  GI50: 0.001 to 0.01 µM
[10]
  GI50: > 1 µM

## COCC(O)COc1ccc2c(c1)ncn2-c1ccc(NC(=O)Nc2cc(C(C)(C)C)n[nH]2)cc1 (centres unmarked) [Compound 80, 1-(5-tert-butyl-2H-pyrazol-3-yl)-3-{4-[5-(2-hydroxy-3-methoxyl-propoxyl)-benzimidazol-1-yl]-phenyl}-urea]
[1]
  GI50: > 1 µM
[2]
  GI50: > 1 µM
[3]
  GI50: 0.0001 to 0.001 µM
[4]
  GI50: > 1 µM
[5]
  GI50: > 1 µM
[6]
  GI50: > 1 µM
[7]
  GI50: > 1 µM
[8]
  GI50: > 1 µM
[9]
  GI50: 0.0001 to 0.001 µM
[10]
  GI50: > 1 µM

## CN1CCN(c2ccc3ncn(-c4ccc(NC(=O)Nc5cc(C(C)(C)C)on5)cc4)c3c2)CC1 [Compound 29, 1-(5-tert-butyl-isoxazol-3-yl)-3-{4-[6-(4-methyl-piperazin-1-yl)-benzimidazol-1-yl]-phenyl}-urea]
[1]
  GI50: > 1 µM
[2]
  GI50: > 1 µM
[3]
  GI50: 0.01 to 0.1 µM
[4]
  GI50: > 1 µM
[5]
  GI50: > 1 µM
[6]
  GI50: > 1 µM
[7]
  GI50: > 1 µM
[8]
  GI50: > 1 µM
[9]
  GI50: 0.01 to 0.1 µM
[10]
  GI50: > 1 µM
